Laboratory results taken from the Deep4Chem optical property database.

Experiment: photoluminescence quantum yield (fraction); solvent given as SMILES

Q: With `CCN1c2ccc(/C=N/Nc3ccccn3)cc2Sc2cc(/C=N/Nc3ccccn3)ccc21` as the compound, how does the photoluminescence quantum yield (in C1CCOC1) read?
A: 0.15

Q: And the photoluminescence quantum yield (in CS(C)=O)?
A: 0.19

Q: What about the photoluminescence quantum yield (in Cc1ccccc1) of the same compound?
A: 0.14

Q: And the photoluminescence quantum yield (in ClCCl)?
A: 0.37

Q: Which results are given for `COc1ccc2c(c1)[nH]c1c3[nH]c4cc(OC)ccc4c3c3nsnc3c21`?
A: photoluminescence quantum yield (in CN(C)C=O): 0.47; photoluminescence quantum yield (in Cc1ccccc1): 0.5; photoluminescence quantum yield (in ClCCl): 0.5

Q: For `c1ccc(-c2nn(-c3ccccc3)c3nc4ccc(N(c5ccccc5)c5cccc6ccccc56)cc4cc23)cc1`, which photoluminescence quantum yield (in C1CCCCC1) is on record?
A: 0.57

Q: And the photoluminescence quantum yield (in C1CCOC1)?
A: 0.57

Q: And the photoluminescence quantum yield (in CC#N)?
A: 0.41

Q: What about the photoluminescence quantum yield (in CC(C)=O) of the same compound?
A: 0.53

Q: What about the photoluminescence quantum yield (in CCCCCl) of the same compound?
A: 0.56

Q: What about the photoluminescence quantum yield (in CCCCOCCCC) of the same compound?
A: 0.56

Q: And the photoluminescence quantum yield (in CN(C)C=O)?
A: 0.47

Q: For `[NH3+]C(Cc1ccccc1)C(=O)[O-]` (stereo not drawn), which photoluminescence quantum yield (in O) is on record?
A: 0.022

Q: Which photoluminescence quantum yield (in ClCCl) does the source give for `c1ccc(-c2cc3c(-c4ccccc4)c4cccc5c(-c6ccccc6)cc6c(-c7ccccc7)c7cccc2c7c3c6c54)cc1` here?
A: 0.26

Q: Which results are given for `CC1=CC(c2ccc3cc(N(C)C)ccc3c2)=[O+][B-](F)(F)O1`?
A: photoluminescence quantum yield (in C1CCOC1): 0.91; photoluminescence quantum yield (in CC#N): 0.14; photoluminescence quantum yield (in CC(C)=O): 0.53; photoluminescence quantum yield (in CS(C)=O): 0.22; photoluminescence quantum yield (in Cc1ccccc1): 0.93; photoluminescence quantum yield (in ClC(Cl)Cl): 0.97; photoluminescence quantum yield (in ClCCl): 0.99

Q: For `CCCCCCCC(=O)Oc1ccc2c3cccc4c(OC(=O)CCCCCCC)ccc(c5cccc1c52)c43`, which photoluminescence quantum yield (in C1CCOC1) is on record?
A: 0.97

Q: And the photoluminescence quantum yield (in Cc1ccccc1)?
A: 0.97

Q: What about the photoluminescence quantum yield (in ClC(Cl)(Cl)Cl) of the same compound?
A: 0.06

Q: What about the photoluminescence quantum yield (in ClC(Cl)Cl) of the same compound?
A: 0.91

Q: What about the photoluminescence quantum yield (in ClCCl) of the same compound?
A: 0.8

Q: What about the photoluminescence quantum yield (in c1ccncc1) of the same compound?
A: 0.93

Q: For `CC1CCC(=CS/C=C/c2ccc(/C=C/SC=C3CCC(C)CC3)cc2)CC1` (stereo not drawn), which photoluminescence quantum yield (in ClCCl) is on record?
A: 0.027

Q: For `CC(C)[Si](C#Cc1c2cc3ccccc3cc2c(C#C[Si](C(C)C)(C(C)C)C(C)C)c2nc3c(ccc4ccccc43)nc12)(C(C)C)C(C)C`, which photoluminescence quantum yield (in CCCCCC) is on record?
A: 0.22

Q: With `Oc1ccc2ccccc2c1` as the compound, how does the photoluminescence quantum yield (in C1CCCCC1) read?
A: 0.51

Q: With `Cc1c(C)n2c(COC(=O)c3ccc(F)cc3)c(C)c(=O)n2c1=O` as the compound, how does the photoluminescence quantum yield (in CCO) read?
A: 0.631

Q: For `CCCCN1c2ccccc2Sc2cc(/C=C\c3cc(=O)oc4cc(C)ccc34)ccc21`, which photoluminescence quantum yield (in ClC(Cl)Cl) is on record?
A: 0.21

Q: Which photoluminescence quantum yield (in CCO) does the source give for `O=c1c2cc(F)c(O)cc2oc2cc(N3CCCCC3)c(F)cc12` here?
A: 0.23

Q: What does the source list for `COc1ccc(-c2cc(C)nc(-c3ccc(-n4c5ccccc5c5ccccc54)cc3)n2)cc1`?
A: photoluminescence quantum yield (in C1CCOC1): 0.47; photoluminescence quantum yield (in CN(C)C=O): 0.66; photoluminescence quantum yield (in Cc1ccccc1): 0.34; photoluminescence quantum yield (in ClC(Cl)Cl): 0.68

Q: For `CCCCCCCC1=C(C)C(=O)n2c1cc1[nH]c(C(=O)OC)c(C)c1c2=O`, which photoluminescence quantum yield (in C1CCCCC1) is on record?
A: 0.02

Q: And the photoluminescence quantum yield (in CO)?
A: 0.73

Q: And the photoluminescence quantum yield (in CS(C)=O)?
A: 0.83

Q: And the photoluminescence quantum yield (in ClC(Cl)Cl)?
A: 0.52

Q: And the photoluminescence quantum yield (in c1ccccc1)?
A: 0.1

Q: Which photoluminescence quantum yield (in Cc1ccccc1) does the source give for `CCCCCCCCCCCCn1cccc1/C=C/c1cc(OCCCC)c(/C=C/c2cccn2CCCCCCCCCCCC)cc1OCCCC` here?
A: 0.4

Q: For `CCC1=C(C)C2=C(c3c4ccccc4c(C)c4ccccc34)c3c(C)c(CC)c(C)n3[B-](F)(F)[N+]2=C1C`, which photoluminescence quantum yield (in CC#N) is on record?
A: 0.054

Q: What about the photoluminescence quantum yield (in CCCCCC) of the same compound?
A: 0.883

Q: What about the photoluminescence quantum yield (in CCO) of the same compound?
A: 0.314

Q: What about the photoluminescence quantum yield (in CN(C)C=O) of the same compound?
A: 0.111

Q: And the photoluminescence quantum yield (in Cc1ccccc1)?
A: 0.863

Q: What about the photoluminescence quantum yield (in ClCCl) of the same compound?
A: 0.667

Q: For `CCCCCCCC[n+]1ccc(-c2cc[n+](CCCCCCCC)cc2)cc1`, which photoluminescence quantum yield (in CC#N) is on record?
A: 0.009

Q: With `Cc1ccc2nc3c(nc2c1)c(-c1ccccc1)nn3C` as the compound, how does the photoluminescence quantum yield (in C1CCCCC1) read?
A: 0.29

Q: And the photoluminescence quantum yield (in C1CCOC1)?
A: 0.47

Q: And the photoluminescence quantum yield (in CC#N)?
A: 0.31

Q: With `CCCC1(CCC)c2ccccc2-c2ccc(-c3ccc(OC)cc3)cc21` as the compound, how does the photoluminescence quantum yield (in C1CCCCC1) read?
A: 0.41

Q: For `CCCCCCCCOc1ccc(C2=C3C(C)=C(C#Cc4ccc(B(c5c(C)cc(C)cc5C)c5c(C)cc(C)cc5C)cc4)C(C)=[N+]3[B-](F)(F)n3c(C)c(C#Cc4ccc(B(c5c(C)cc(C)cc5C)c5c(C)cc(C)cc5C)cc4)c(C)c32)cc1`, which photoluminescence quantum yield (in ClCCl) is on record?
A: 0.65

Q: Which results are given for `COC(=O)/C=C/c1ccc2ccc3cccc4ccc1c2c34`?
A: photoluminescence quantum yield (in C1CCOC1): 0.73; photoluminescence quantum yield (in C1COCCO1): 0.55; photoluminescence quantum yield (in CC#N): 0.46; photoluminescence quantum yield (in CC(C)=O): 0.51; photoluminescence quantum yield (in CCCCCC): 0.46; photoluminescence quantum yield (in CCOC(C)=O): 0.57; photoluminescence quantum yield (in CO): 0.26; photoluminescence quantum yield (in Cc1ccccc1): 0.47

Q: With `COc1ccc(C2=Nc3cccc4[n+]3[B-](F)(O2)OC(c2ccc(OC)cc2)=N4)cc1` as the compound, how does the photoluminescence quantum yield (in ClCCl) read?
A: 0.39

Q: Which photoluminescence quantum yield (in ClC(Cl)Cl) does the source give for `CC1=CC(C)=[N+]2C1=C(c1ccc(I)cc1)c1c(C)cc(C)n1[B-]2(F)F` here?
A: 0.57

Q: With `COc1ccc(/C=C/c2ccccc2)cc1` as the compound, how does the photoluminescence quantum yield (in C1CCCCC1) read?
A: 0.022

Q: And the photoluminescence quantum yield (in CC#N)?
A: 0.007

Q: What about the photoluminescence quantum yield (in CC(C)O) of the same compound?
A: 0.011

Q: And the photoluminescence quantum yield (in CCCCOCCCC)?
A: 0.02

Q: What about the photoluminescence quantum yield (in CCOC(C)=O) of the same compound?
A: 0.016

Q: And the photoluminescence quantum yield (in CCOCC)?
A: 0.015
